Entries after “also recorded” stand apart in the source; their conditions may differ.
Tests used:
ACE [1] = target: ACE (Homo sapiens, UniProt P12821); settings: cited from earlier work; for IC50: Nakamura et al. 1995, Aryoshi 1993, read-out: IC50 values reported earlier for ACE inhibiting peptides; for ACE inhibiting activities reported: in vitro, prior art
[2] = test system: spontaneously hypertensive rats; settings: tripeptides from fermented milk (Nakamura et al. 1995); cited from earlier work
ACE [3] = experiment: at-line ACE inhibition assay (HHL substrate, HPLC read-out); assay type: biochemical; settings: at-line measurements used in the screening phase
From the text: The presence of novel ACE inhibiting peptides in CDBAP was investigated by using 2-dimensional-chromatographic-separation combined with an at-line ACE inhibition assay and mass spectrometry for identification. In the first analysis the peptide mixture was separated on an ODS3 liquid chromatography (LC) column and ACE inhibition profiles were generated from the various fractions obtained. In a second analysis the fractions from the first column showing a high ACE inhibition were further separated on a Biosuite LC column using a different gradient profile. The fractions collected from this second column were split into two parts: one part was used for the at-line ACE inhibition measurement while the other part was subjected to MS and MS-MS analysis to identify the peptides present. […]
The 96 well plate was then analysed on a flash-HPLC-column. […] Hippuric acid (H) and HHL were monitored at 280 nm. The peak heights of H and HHL were measured and the ACE inhibition (ACEI) of each fraction was calculated according to the equation:
[formula] • ACEIα Percentage inhibition of the analyte • Dcw Degree of Cleavage by ACE of HHL to H and HL in water • Dca Degree of Cleavage of HHL to H and HL for the analyte The Degree of Cleavage was calculated by expressing the peak height of H as a fraction of the sum of the peak heights of H and HHL.

ACE [4] = experiment: modified Matsui ACE inhibition assay (Hip-His-Leu, TNBS); assay type: biochemical
Protocol: To determine the ACE inhibition activity of MAP and ITP, the chemically synthesised tripeptides were assayed according to the method of Matsui et al. (Matsui, T. et al. (1992) Biosci. Biotech. Biochem. 56: 517-518) with some minor modifications.
Each one of the four samples contained 75 μl 3 mM hippuryl histidine leucine (Hip-His-Leu, Sigma Chemicals) dissolved in a 250 mM borate solution containing 200 mM NaCl, pH 8.3. ACE was obtained from Sigma Chemicals. The mixtures were incubated at 37° C. and stopped after 30 min by adding 125 μl 0.5 M HCl. Subsequently, 225 μl bicine/NaOH solution (1 M NaOH: 0.25 M bicine (4:6)) was added, followed by 25 μl 0.1 M TNBS (2,4,6-Trinitrobenzenesulfonic acid, Fluka, Switzerland; in 0.1 M Na2HPO4). After incubation for 20 min. at 37° C., 4 ml 4 mM Na2SO3 in 0.2 M NaH2PO4 was added and the light absorbance at 416 nm was measured with UV/Vis spectrophotometer (Shimadzu UV-1601 with a CPS controller, Netherlands).
The amount of ACE inhibition (ACEI) activity was calculated as a percentage of inhibition compared with the conversion rate of ACE in the absence of an inhibitor according to the following formula:
ACEI (%)=((Control 1−Control 2)−(Sample 1−Sample 2))/(Control 1−Control 2))*100
wherein • Control 1=Absorbance without ACE inhibitory component (=max. ACE activity) [AU]. • Control 2=Absorbance without ACE inhibitory component and without ACE (background) [AU]. • Sample 1=Absorbance in the presence of ACE and the ACE inhibitory component [AU]. • Sample 2=Absorbance in the presence of the ACE inhibitory component, but without ACE [AU].

[5] = gastrointestinal treatment (GIT) simulating digestion with pepsin and pancreatin; assay type: in vitro ADME, human
Protocol: After consumption, dietary proteins and peptides are exposed to various digestive enzymatic processes in the gastrointestinal tract. In order to assess the stability of the newly identified bioactive peptides in the human gastrointestinal tract, the CDBAP preparation (prepared as described in Example 7) was subjected to a gastrointestinal treatment (GIT) simulating the digestive conditions typically found in the human body. Samples obtained after various incubation times in the GIT model system were analysed using the on-line HPLC-Bioassay-MS or HRS-MS system to quantify any residual MAP and ITP peptides. The GIT procedure was performed in a standardized mixing device incorporating a 100 ml flask (as supplied by Vankel, US). The temperature of the water bath was set to 37.5° C. and the paddle speed was chosen such that the sample was kept in suspension (100 rpm).
About 3.4 grams of CDBAP (protein level of approx 60%) was dissolved/suspended in 100 ml Milli-Q water. During gastric simulation 5 M HCl was used to decrease the pH. At the end of gastric simulation and during the duodenal phase 5 M NaOH was used to raise the pH.
The CDBAP suspension was preheated to 37.5° C. and 5 ml of the suspension was removed to dissolve 0.31 g of pepsin (Fluka order no. 77161). At t=0 min the 5 ml with the now dissolved pepsin was added back to the suspension. Then the pH of the CDBAP suspension was adjusted slowly by hand using a separate pH meter according to the following scheme:
t=20 min pH decreased to 3.5 t=40 min pH to 3.0 t=50 min pH to 2.3 t=60 min pH to 1.8 t=65 min pH raised to 2.7 t=75 min pH to 3.7 t=80 min pH to 5.3 […]
Then the samples were transferred into a beaker and were placed in a microwave till boiling. […] The total N concentration of the powder as obtained was determined and converted to protein level using the Kjeldahl factor of casein (6.38). […] The levels of MAP and ITP surviving the proteolytic treatment according to the GIT procedure were determined as described in Example 7 and the data obtained are shown in Table 10.

[6] = as restated in the description, read-out: IC50 value in the Modified Matsui test

ACE (Homo sapiens, UniProt P12821), sequence (P12821 30-1306, species assumed): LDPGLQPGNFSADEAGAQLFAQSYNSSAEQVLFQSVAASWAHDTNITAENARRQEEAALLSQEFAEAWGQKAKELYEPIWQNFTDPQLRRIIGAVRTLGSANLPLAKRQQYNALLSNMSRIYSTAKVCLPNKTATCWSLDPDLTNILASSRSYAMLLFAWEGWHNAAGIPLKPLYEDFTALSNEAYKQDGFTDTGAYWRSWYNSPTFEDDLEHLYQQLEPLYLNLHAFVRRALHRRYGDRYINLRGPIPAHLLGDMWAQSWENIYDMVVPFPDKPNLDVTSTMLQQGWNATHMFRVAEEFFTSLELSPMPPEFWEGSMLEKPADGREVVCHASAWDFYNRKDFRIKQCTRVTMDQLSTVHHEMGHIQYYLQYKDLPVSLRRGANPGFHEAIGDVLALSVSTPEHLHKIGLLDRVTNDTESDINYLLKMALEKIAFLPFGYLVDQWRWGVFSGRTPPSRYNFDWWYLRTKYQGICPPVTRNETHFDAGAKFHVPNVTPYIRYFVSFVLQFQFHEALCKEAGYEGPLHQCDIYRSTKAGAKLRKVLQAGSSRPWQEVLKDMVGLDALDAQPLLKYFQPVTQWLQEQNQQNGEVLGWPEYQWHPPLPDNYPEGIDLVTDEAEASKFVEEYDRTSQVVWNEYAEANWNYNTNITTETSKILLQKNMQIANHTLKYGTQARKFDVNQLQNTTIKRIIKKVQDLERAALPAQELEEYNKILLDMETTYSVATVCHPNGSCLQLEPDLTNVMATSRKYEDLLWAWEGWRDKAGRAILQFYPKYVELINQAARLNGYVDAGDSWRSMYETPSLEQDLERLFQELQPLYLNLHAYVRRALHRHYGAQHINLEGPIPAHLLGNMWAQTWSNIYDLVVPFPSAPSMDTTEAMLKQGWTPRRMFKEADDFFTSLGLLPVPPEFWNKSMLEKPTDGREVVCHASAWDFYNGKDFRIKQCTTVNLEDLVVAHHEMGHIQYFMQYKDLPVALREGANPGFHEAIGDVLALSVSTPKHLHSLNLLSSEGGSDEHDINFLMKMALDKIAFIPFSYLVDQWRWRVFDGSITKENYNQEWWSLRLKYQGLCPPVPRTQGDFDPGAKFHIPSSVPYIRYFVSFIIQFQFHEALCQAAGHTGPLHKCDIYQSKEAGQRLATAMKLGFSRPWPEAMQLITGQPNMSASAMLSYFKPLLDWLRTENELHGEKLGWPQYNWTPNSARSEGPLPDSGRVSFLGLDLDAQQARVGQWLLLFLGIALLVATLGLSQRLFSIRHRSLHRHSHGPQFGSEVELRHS

| Substance | IC50 (ACE [1]) | ACE inhibiting activities reported (ACE [1]) | antihypertensive effects [2] | IC50 (ACE [3]) | IC50 (ACE [4]; [6]) | Concentration of tripeptide in CDBAP before GIT procedure ([5]; CDBAP (Example 7), before passage) | Concentration of tripeptide in CDBAP after GIT procedure ([5]; CDBAP after GIT, pepsin then pancreatin, 125 min, 37.5° C.) | resistance against GIT digestion ([5]; simulated gastro-intestinal digestion) | IC50 (ACE [4]; chemically synthesized tripeptides, read-out: IC50 value, Modified Matsui assay) |
| --- | --- | --- | --- | --- | --- | --- | --- | --- | --- |
| Leu-Pro-Pro [LPP] | 9.6 µM | Strong ACE inhibiting activities | – | – | – | – | – | – | – |
| Val-Pro-Pro [VPP] | – | Strong ACE inhibiting activities | confirmed | – | – | – | – | – | – |
| Ile-Pro-Pro (IPP) | 5 µM | Strong ACE inhibiting activities | confirmed | 7.1 µM | 2 µM | – | – | – | – |
| Ile-Thr-Pro (ITP) | – | – | – | 50 µM | 10 µM | 903.7 μg g^−1 powder | 889.1 μg g^−1 powder | high resistance; also recorded: resist gastrointestinal proteolytic degradation; also recorded: survive | 10 µM |

Reference: patent publication US20090042809A1, “Blood Pressure Lowering Protein Hydrolysates” (priority 2005, published 2009)
